Entries after “also recorded” stand apart in the source; their conditions may differ.
Tests used:
Format in all cases: in vivo, rat
[1] = tested on: Male Wistar rats; assay: Operant ethanol self-administration after intracerebroventricular injection
Protocol: Male Wistar rats (Charles River, Hamburg, Germany), appr. 225 g at start of experiment were used for the experiments from which data are presented. For a replication experiment (see Results), Wistar males of the same age but delivered by Mollegard, Ry, Denmark, were used. Subjects were housed on a reversed light-cycle (lights off 11 am, on 11 pm). Following training for operant responding (see below), surgery was carried out for unilateral cannula implantation. Rats were anaesthetized with ketaminelxylazine (80 mg/kg and 15 mg/kg) and placed in a stereotaxic apparatus (Kopf). Stainless steel guide cannulas (23 gauge, PlasticOne, Roanoke, Va.) aimed at the lateral ventricle were implanted and secured to the skull with stainless screws and dental cement. Final injection coordinates were: A=−0.8, L=±1.4, V=−4.3 from Bregma (15). Animals were allowed to recover for one week, during which time they were only repeatedly handled, in order to reduce the stress of subsequent intracerebroventricular injections. They were then reintroduced to the operant task (see below), and allowed to re-establish their rates of operant responding for two weeks. Finally, the actual Latin-square design was initiated, and carried out over the course of three weeks.
BIIE0246 ([…]; kind gift of Boehringer Ingelheim) or saline was injected i.c.v. via an injection cannula (28-gauge) connected to a 10 μl Hamilton syringe with a low-volume plastic tubing. […] The drug was dissolved in 0.9% NaCl and injected 45 min prior to onset of sessions, in a volume of 10 μl over a period of 2 min interval. The injection cannula was left in place for an additional minute to prevent back flow.
Following completion of training, rats were subjected to surgery, allowed to recover for one week and to stabilize their baseline responding for two weeks, after which a Latin Square design was initiated and carried out over three weeks. During each of these weeks, rats were run Monday-Friday, and drug administration was on Friday. […] In order to retain a balanced design, the analysis presented here includes only those subjects, which completed all treatments. An analysis based on all subjects, with missing values for failed injections, produced a virtually identical result.

[2] = tested on: Wistar rats; assay: Exploratory locomotor activity after intracerebroventricular administration; conditions: for Horizontal locomotor activity / Vertical locomotor activity (rearings): 30 min test period, n=6, mean ± SEM
[3] = tested on: rats; assay: Preliminary dose-finding experiments (sedation); conditions: dose of 3 nmol i.c.v.
Protocol: […] […] The drug was dissolved in 0.9% NaCl and injected 45 min prior to onset of sessions, in a volume of 10 μl over a period of 2 min interval. The injection cannula was left in place for an additional minute to prevent back flow.

[4] = Wistar rats from Mollegard, separate experiment (data not shown)

N=C(N)NCCC[C@H](NC(=O)CC1(CC(=O)N2CCN(C3c4ccccc4NC(=O)c4ccccc43)CC2)CCCC1)C(=O)NCCn1c(=O)n(-c2ccccc2)n(-c2ccccc2)c1=O (stereo partly drawn) [BIIE0246, (S)—N^2-//1-/2-/4-/(R,S)-5,11-Dihydro-6(6H)-oxodibenz/b,elazepin-11-yl/-1-piperazinyl/-2-oxoethyl/-cyclopentyl/acetyl/-N-/2-/1,2-dihydro-3,5(4H)-dioxo-1,2-diphenyl-3H-1,2,4-triazol-4-yl/-ethyl/-argininamide]
Ethanol-reinforced responses over time (cumulative, 5 min intervals) ([1]; 1.0 nmol i.c.v., 30 min session, vs saline, Tukey HSD p<0.001): present during min 10-30; also recorded: significantly less during the last 20 but not during the initial 10 min
Reduction of total responding for ethanol ([1]; 1.0 nmol i.c.v., 45 min before 30 min session, Wistar rats (Charles River), p<0.05 vs saline and vs 0.3 nmol): ~40%
Responding for ethanol ([1]; 1.0 nmol i.c.v., n=13, p=0.013 (FIG. 1A)): significantly reduced
Effect on saccharin solution, replication experiment [1, 4]: no effect
Suppression of responding for ethanol, replication experiment [1, 4]: 40%
Total responding for ethanol (overall treatment effect) ([1]; i.c.v., 0, 0.3 and 1.0 nmol, one way ANOVA, n=13, p=0.013): significantly reduced
Responding for saccharin ([1]; i.c.v., 0.3 and 1.0 nmol, p=0.25, Charles River Wistar rats): unaffected
Horizontal locomotor activity ([2]; 0.3 nmol i.c.v.): 2873.8 ± 572.0
Vertical locomotor activity (rearings) ([2]; 0.3 nmol i.c.v.): 756.8 ± 122.9
Horizontal locomotor activity ([2]; 1.0 nmol i.c.v.): 2630.2 ± 480.0
Vertical locomotor activity (rearings) ([2]; 1.0 nmol i.c.v.): 503.3 ± 113.4
Effect of treatment on horizontal and vertical locomotor activity ([2]; i.c.v., 0.3 and 1.0 nmol, n=6, p=0.74 horizontal, p=0.17 vertical): Neither horisontal (n=6; F[2,15]=0.3; p=0.74) nor vertical activity (F[2,15]=2.0; p=0.17) was affected
Sedative effect [3]: marked sedative effects
